Laboratory results from patent US11993513B2, “Process for manufacturing an aqueous hydrogen peroxide solution” (SOLVAY SA, priority 2018, dated 2024).

Columns and labels:
Format in all cases: physicochemical
[1] = Solubility tests of hydrogenated quinones (QH) in solvent mixtures, synthetic EQ/ETQ working solutions; conditions: comparison in words
Experimental: The determination of the QH solubility was performed on synthetic EQ/ETQ working solutions. These quinones mixed in the tested solvents have been hydrogenated to a fixed level and cooled down successively to 3 different temperatures before the measurement (min. 3 hours to stabilize the system between each measurement). The conditions applied for these tests were:
In this figure, Kb stands for the weight partition coefficient of hydrogen peroxide between the water and the working solution (mixture of quinones and organic solvents). It is calculated using the following formula: Kb=(g H2O2/kg aqueous phase)/(g H2O2/kg organic phase)
The maximum solubility of a hydrogenated quinone (QH) in a solvent mixture is directly correlated with the productivity of the working solution. The higher is the QH solubility, the higher will be the theoretical quantity of hydrogen peroxide achievable per kg of WS (Productivity). These theoretical values, designated by the terms “Productivity (gH2O2/kg of WS) measured” in Table 1, were calculated as follows: […]
1 mole (240 g) ETQH (which actually is the QH in our Examples) per kg of WS will produce 1 mole (34 g) of H2O2 per kg of WS.

[2] = Density of polar solvents; conditions: ambient temperature
[3] = Stability of the nitrile solvent during the AO process; conditions: nitrile function not protected
From the text: As explained above, the main feature of the invention is the recourse to a mixture of a polar organic solvent and a non-polar organic solvent wherein the polar organic solvent is a substituted cyclohexane carbonitrile. […] The substituent(s) are preferably alkyl groups, preferably methyl and/or ethyl group(s). […] Another alternative would be to use at least one propyl, diethyl, methyl isopropyl, butyl, t-butyle . . . the latter being preferred.

Row | Molecule | Productivity values compared with sextate or a linear nitrile like decanenitrile [1] | Density of polar solvents at amb T° [2] [kg/L] | Stability of the molecule during the AO process [3]
1 | CC1CCCC(C)(C)C1C#N (centres unmarked) [TMCH-CN, 2,2,6-trimethyl-cyclohexane-carbonitrile] | much higher (almost the double in fact) | 0.89 | 
2 | N#CC1CCCCC1 [Unsubstituted cyclohexane carbonitrile, cyclohexane carbonitrile] |  |  | undergoes degradation
3 | CCCCCCCCCC#N [Decanenitrile] |  | 0.83 | 
4 | methyl cyclohexyl acetate [Sextate] |  | 0.94 | 
